Data taken from ChEMBL document CHEMBL3580659, “One-pot multicomponent synthesis of indole incorporated thiazolylcoumarins and their antibacterial, anticancer and DNA cleavage studies” (2015).

Columns and labels:
Assay type in all cases: functional
HT-29 [1] = experiment: Cytotoxicity against human HT-29 cells assessed as cell growth level at 10 uM after 48 hrs by sulforhodamine B assay
NCI-H460 = experiment: Cytotoxicity against human NCI-H460 cells after 48 hrs by sulforhodamine B assay; conditions: NCI-H460, 48 h
HCT-116 [2] = experiment: Cytotoxicity against human HCT116 cells assessed as cell growth level at 100 nM after 48 hrs by sulforhodamine B assay
HCC 2998 = experiment: Cytotoxicity against human HCC2998 cells assessed as cell growth level at 100 uM after 48 hrs by sulforhodamine B assay
UACC-257 [3] = experiment: Cytotoxicity against human UACC257 cells assessed as cell growth level at 100 uM after 48 hrs by sulforhodamine B assay
HOP-62 = experiment: Cytotoxicity against human HOP62 cells assessed as cell growth level at 100 nM after 48 hrs by sulforhodamine B assay
T47D = experiment: Cytotoxicity against human T47D cells assessed as cell growth level at 10 uM after 48 hrs by sulforhodamine B assay
Malme-3M = experiment: Cytotoxicity against human MALME-3M cells assessed as cell growth level at 100 uM after 48 hrs by sulforhodamine B assay
HCT-116 [4] = experiment: Cytotoxicity against human HCT116 cells assessed as cell growth level at 100 uM after 48 hrs by sulforhodamine B assay
MDA-MB-435 [5] = experiment: Cytotoxicity against human MDA-MB-435 cells assessed as cell growth level at 10 nM after 48 hrs by sulforhodamine B assay
IGROV-1 [6] = experiment: Cytotoxicity against human IGROV1 cells after 48 hrs by sulforhodamine B assay; conditions: IGROV-1, 48 h
HCT-116 [7] = experiment: Cytotoxicity against human HCT116 cells assessed as cell growth level at 10 nM after 48 hrs by sulforhodamine B assay
IGROV-1 [8] = experiment: Cytotoxicity against human IGROV1 cells assessed as cell growth level at 10 nM after 48 hrs by sulforhodamine B assay
NCI-H23 = experiment: Cytotoxicity against human NCI-H23 cells after 48 hrs by sulforhodamine B assay; conditions: NCI-H23, 48 h
SR = experiment: Cytotoxicity against human SR cells assessed as cell growth level at 100 nM after 48 hrs by sulforhodamine B assay
OVCAR-8 [9] = experiment: Cytotoxicity against human OVCAR8 cells after 48 hrs by sulforhodamine B assay; conditions: OVCAR-8, 48 h
MDA-MB-231 = experiment: Cytotoxicity against human MDA-MB-231/ATCC cells assessed as cell growth level at 100 uM after 48 hrs by sulforhodamine B assay
NCI-H522 [10] = experiment: Cytotoxicity against human NCI-H522 cells after 48 hrs by sulforhodamine B assay; conditions: NCI-H522, 48 h
HT-29 [11] = experiment: Cytotoxicity against human HT-29 cells assessed as cell growth level at 100 nM after 48 hrs by sulforhodamine B assay
NCI-H226 = experiment: Cytotoxicity against human NCI-H226 cells assessed as cell growth level at 10 nM after 48 hrs by sulforhodamine B assay
NCI-H522 [12] = experiment: Cytotoxicity against human NCI-H522 cells assessed as cell growth level at 100 uM after 48 hrs by sulforhodamine B assay
HOP-92 = experiment: Cytotoxicity against human HOP92 cells assessed as cell growth level at 10 uM after 48 hrs by sulforhodamine B assay
MDA-MB-468 [13] = experiment: Cytotoxicity against human MDA-MB-468 cells assessed as cell growth level at 100 uM after 48 hrs by sulforhodamine B assay
OVCAR-5 = experiment: Cytotoxicity against human OVCAR5 cells assessed as cell growth level at 10 uM after 48 hrs by sulforhodamine B assay
SNB-75 [14] = experiment: Cytotoxicity against human SNB75 cells assessed as cell growth level at 100 nM after 48 hrs by sulforhodamine B assay
ACHN [15] = experiment: Cytotoxicity against human ACHN cells assessed as cell growth level at 1 uM after 48 hrs by sulforhodamine B assay
ACHN [16] = experiment: Cytotoxicity against human ACHN cells assessed as cell growth level at 100 nM after 48 hrs by sulforhodamine B assay
UACC-257 [17] = experiment: Cytotoxicity against human UACC257 cells assessed as cell growth level at 10 nM after 48 hrs by sulforhodamine B assay
K562 = experiment: Cytotoxicity against human K562 cells assessed as cell growth level at 1 uM after 48 hrs by sulforhodamine B assay
UO-31 = experiment: Cytotoxicity against human UO31 cells assessed as cell growth level at 10 uM after 48 hrs by sulforhodamine B assay
U-251 = experiment: Cytotoxicity against human U251 cells assessed as cell growth level at 100 nM after 48 hrs by sulforhodamine B assay
OVCAR-8 [18] = experiment: Cytotoxicity against human OVCAR8 cells assessed as cell growth level at 100 nM after 48 hrs by sulforhodamine B assay
RXF 393 = experiment: Cytotoxicity against human RXF393 cells assessed as cell growth level at 10 nM after 48 hrs by sulforhodamine B assay
SK-MEL-2 = experiment: Cytotoxicity against human SK-MEL-2 cells assessed as cell growth level at 10 uM after 48 hrs by sulforhodamine B assay
SK-MEL-28 = experiment: Cytotoxicity against human SK-MEL-28 cells assessed as cell growth level at 1 uM after 48 hrs by sulforhodamine B assay
MDA-MB-435 [19] = experiment: Cytotoxicity against human MDA-MB-435 cells assessed as cell growth level at 1 uM after 48 hrs by sulforhodamine B assay
HT-29 [20] = experiment: Cytotoxicity against human HT-29 cells assessed as cell growth level at 10 nM after 48 hrs by sulforhodamine B assay
MDA-MB-468 [21] = experiment: Cytotoxicity against human MDA-MB-468 cells assessed as cell growth level at 10 nM after 48 hrs by sulforhodamine B assay
SNB-75 [22] = experiment: Cytotoxicity against human SNB75 cells assessed as cell growth level at 1 uM after 48 hrs by sulforhodamine B assay
M14 = experiment: Cytotoxicity against human M14 cells assessed as cell growth level at 100 nM after 48 hrs by sulforhodamine B assay
[23] = read-out: LC50 (the source's name)
[24] = read-out: pLC50 (the source's name) (converted)

Compound: O=c1oc2ccccc2cc1-c1csc(N/N=C/c2c[nH]c3ccccc23)n1
- Activity (HT-29 [1]): 32.14%
- GI50 (NCI-H460; read-out: GI50): 2.84 µM
- LC50 (NCI-H460; read-out: LC50): > 100 µM
- TGI (NCI-H460; read-out: TGI): 9.69 µM
- GI50 (NCI-H460; read-out: pGI50 (converted)): 2.82 µM
- LC50 (NCI-H460; read-out: pLC50 (converted)): > 100 µM
- TGI (NCI-H460; read-out: pTGI (converted)): 9.77 µM
- Activity (HCT-116 [2]): 91%
- Activity (HCC 2998): -92%
- Activity (UACC-257 [3]): -89%
- Activity (HOP-62): 110%
- Activity (T47D): 4.07%
- Activity (Malme-3M): -67%
- Activity (HCT-116 [4]): -66%
- Activity (MDA-MB-435 [5]): 92%
- GI50 (IGROV-1 [6]; read-out: GI50): 1.54 µM
- CC50 (IGROV-1 [6]; [23]): > 100 µM
- TGI (IGROV-1 [6]; read-out: TGI): 4.7 µM
- GI50 (IGROV-1 [6]; read-out: pGI50 (converted)): 1.55 µM
- CC50 (IGROV-1 [6]; [24]): > 100 µM
- TGI (IGROV-1 [6]; read-out: pTGI (converted)): 4.68 µM
- Activity (HCT-116 [7]): 92%
- Activity (IGROV-1 [8]): 108%
- GI50 (NCI-H23; read-out: GI50): 2.44 µM
- LC50 (NCI-H23; read-out: LC50): > 100 µM
- TGI (NCI-H23; read-out: TGI): 5.82 µM
- GI50 (NCI-H23; read-out: pGI50 (converted)): 2.45 µM
- LC50 (NCI-H23; read-out: pLC50 (converted)): > 100 µM
- TGI (NCI-H23; read-out: pTGI (converted)): 5.75 µM
- Activity (SR): 102%
- GI50 (OVCAR-8 [9]; read-out: GI50): 1.9 µM
- CC50 (OVCAR-8 [9]; [23]): > 100 µM
- TGI (OVCAR-8 [9]; read-out: TGI): 4.56 µM
- GI50 (OVCAR-8 [9]; read-out: pGI50 (converted)): 1.91 µM
- CC50 (OVCAR-8 [9]; [24]): > 100 µM
- TGI (OVCAR-8 [9]; read-out: pTGI (converted)): 4.57 µM
- Activity (MDA-MB-231): -3%
- GI50 (NCI-H522 [10]; read-out: GI50): 1.03 µM
- LC50 (50% lethal concentration) (NCI-H522 [10]; read-out: LC50): 4.96 µM
- TGI (NCI-H522 [10]; read-out: TGI): 2.26 µM
- GI50 (NCI-H522 [10]; read-out: pGI50 (converted)): 1.02 µM
- LC50 (50% lethal concentration) (NCI-H522 [10]; read-out: pLC50 (converted)): 5.01 µM
- TGI (NCI-H522 [10]; read-out: pTGI (converted)): 2.24 µM
- Activity (HT-29 [11]): 105%
- Activity (NCI-H226): 98%
- Activity (NCI-H522 [12]): -80%
- Activity (HOP-92): -14.45%
- Activity (MDA-MB-468 [13]): -39%
- Activity (OVCAR-5): 55.24%
- Activity (SNB-75 [14]): 90%
- Activity (ACHN [15]): 72%
- Activity (ACHN [16]): 97%
- Activity (UACC-257 [17]): 96%
- Activity (K562): 100%
- Activity (UO-31): -90.51%
- Activity (U-251): 108%
- Activity (OVCAR-8 [18]): 107%
- Activity (RXF 393): 98%
- Activity (SK-MEL-2): -9.49%
- Activity (SK-MEL-28): 93%
- Activity (MDA-MB-435 [19]): 79%
- Activity (HT-29 [20]): 106%
- Activity (MDA-MB-468 [21]): 94%
- Activity (SNB-75 [22]): 74%
- Activity (M14): 92%
